Source: the METLIN SMRT retention time set (Domingo-Almenara et al. 2019)

Assay: gradient 5% acetonitrile 3 min, to 50% in 2 min, to 85% in 15 min, held 3 min, 100 µL/min
Settings: column: Zorbax Extend-C18 2.1 x 50 mm; eluents: water / acetonitrile, 0.1% formic acid
Procedure, shortened: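 Mixtures of ~100 pure standards were chromatographed on a Zorbax Extend-C18 column (2.1 × 50 mm, 1.8 μm) at 100 μL/min using water and acetonitrile, each with 0.1% formic acid. Detection used a quadrupole time-of-flight mass spectrometer in positive and negative ionization mode, and data collection spanned 3 months. Retention time was obtained from adduct peaks picked computationally and each checked manually.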

| Structure (SMILES) | RP-LC retention time [s] |
| --- | --- |
| CCN1CCC(N(Cc2cccs2)C(=O)Nc2cc(OC)cc(OC)c2)CC1 | 651 |
| Cc1nnc2ccc(-c3noc(CCc4ccccc4)n3)cn12 | 1140 |
| COc1ccc(C)cc1NC(=O)N1CCC(CC(=O)N2CCCCC2)CC1 | 811 |
| CCOc1cccc2cc(C(=O)Nc3ccc(S(N)(=O)=O)cc3)oc12 | 747 |
| COc1cccc(CNC2CCN(c3ccc(C(=O)NC4CC4)cn3)C2)c1 (stereo unspecified) | 547 |
| CCc1noc(-c2ccc(SCC(=O)N3CCC(C(N)=O)CC3)nc2)n1 | 639 |
| c1ccc2c(c1)OCC(c1nc(-c3ccc(-n4ccnc4)nc3)no1)O2 (stereo unspecified) | 707 |
| Cc1ccc(C(=O)NC2CCN(c3cc(-c4cccs4)[nH]n3)C2)cc1C (stereo unspecified) | 726 |
| O=C(Cc1c[nH]c2ccccc12)N1CC(n2cc(COCC3CC3)nn2)C1 | 704 |
| COc1ccc(OC)c(NC(=O)CCc2c(C)nn(-c3cc(N(C)C)ncn3)c2C)c1 | 822 |
| COc1ccc(-c2csc3c(=O)n(CCOc4ccccc4)cnc23)cc1 | 1060 |
| Cc1cccnc1NC(=O)c1c[nH]c2c(C(F)(F)F)cccc2c1=O | 573 |
| O=C(NCc1cccs1)C1CCN(c2cnn(Cc3ccccc3)c(=O)c2)CC1 | 742 |
| COc1ccc2c(c1)C1(CCN(S(=O)(=O)c3cc(OC)ccc3OC)C1)C(=O)N2C (stereo unspecified) | 879 |
| COCCC(=O)NC1CCN(C2=NS(=O)(=O)C(c3cccc(Cl)c3)=C2C)CC1 | 722 |
| O=C(Cn1ccc2c(SCc3ccccc3)nccc21)NCCCN1CCCC1 | 587 |
| CC1=C(c2cccc(Cl)c2)S(=O)(=O)N=C1N1CCCN(C(=O)NC(C)(C)C)CC1 | 883 |
| CC(=O)N1CCc2cc(C(=O)N3CCOCC3)ccc21 | 607 |
| CCn1c(SC)nnc1-c1nn(C)c2c1CN(C(=O)c1ccc(F)c(F)c1)CC2 | 804 |
| Cc1ccc(NC(=O)Cn2nc3n(c2=O)CCCCC3)cc1 | 708 |
| Cc1[nH]c(C(=O)N2CCC(CC(=O)NC(C)C)CC2)c(C)c1C(=O)OC(C)C | 713 |
| Cc1cccc2nnc(N3CCN(C(=O)c4ccc(C(F)(F)F)cc4)CC3)n12 | 716 |
| Cc1cnn(Cc2nc(-c3ccc(NC(=O)c4ccc(C)s4)cc3)oc2C)c1 | 940 |

| Structure (SMILES) | RP-LC retention time [s] |
| --- | --- |
| CCN1c2ccc(F)cc2C(=O)NC12CCN(C(=O)c1cccc(OC)c1)CC2 | 786 |
| COc1ccc(-c2noc(C3CCCN3C(=O)CNC(=O)c3ccccc3)n2)cc1 (stereo unspecified) | 792 |
| CC(C)CNc1nnc(-c2nc(C3CC3)no2)c2ccccc12 | 657 |
| CC1CCc2nc(NC(=O)CCS(=O)(=O)Cc3ccccc3)sc2C1 (stereo unspecified) | 853 |
| Cc1nc(N2CCOCC2)c2c(C(=O)N3CCCc4ccccc43)c(C)oc2n1 | 853 |
| CC1(C(=O)NCc2ccc3c(c2)OCO3)CCN(C(=O)/C=C/c2ccccc2)CC1 | 817 |
| CCCC(NC(=O)c1ccsc1)C(=O)Nc1nc2ccccc2[nH]1 (stereo unspecified) | 667 |
| O=C1CCN(C(=O)C2CCN(C(=O)C3CCCC3)CC2)CCCCCCN1 | 652 |
| CC1(C)CC(=O)c2cn(-c3ccccc3)c(=O)c(C(=O)Nc3ccccc3F)c2C1 | 1040 |
| CC1CCN(S(=O)(=O)c2ccc3c(ccn3CCC(=O)N3CCN(c4ccccn4)CC3)c2)CC1 | 728 |
| CC1=C(c2ccc(C)cc2)S(=O)(=O)N=C1N1CCCN(C(=O)C2CCCCC2)CC1 | 600 |
| Cn1c(N)c(C(=O)c2ccco2)c(=O)n(C)c1=O | 560 |
| COc1ccc(NC(=O)c2ccc(-c3cncnc3)nc2)cc1 | 687 |
| O=C(Nc1ccccn1)c1csc2nc(-c3ccc(F)cc3)cn12 | 808 |
| Cc1cccc(NC(=O)CSc2nc(=O)n(CCN(C)C)c3c2CCC3)c1 | 570 |
| Cc1nnc(C2CC3(CCN(CCO)CC3)CN2Cc2ccccc2)o1 (stereo unspecified) | 565 |
| Cc1cc(N2CCN(C)CC2)nc2ccc(NC(=S)NCc3ccco3)cc12 | 564 |
| O=c1cc(-c2ccc(Cl)cc2)[nH]c2ccccc12 | 869 |
| Cc1ccccc1OCC(=O)Nc1cc2c(cc1Oc1ccccc1)n(C)c(=O)c(=O)n2C | 939 |
| Cc1ccc(NC(=O)N2C[C@H](c3nc(-c4ccncc4)no3)[C@@H](C)C2)c(C)c1 | 797 |
| CCCCC(=O)Nc1nc(-c2ccc3c(c2)NC(=O)CO3)cs1 | 801 |
| O=C(c1nc2nc(-c3ccco3)cc(C(F)(F)F)n2n1)N1CCN(c2ccccn2)CC1 | 630 |
| CCNc1cc(N2CCC(CCC(=O)NCc3ccc(OC)cc3)CC2)ncn1 | 568 |

| Structure (SMILES) | RP-LC retention time [s] |
| --- | --- |
| O=C(Nc1nc2c(s1)CCc1ccccc1-2)Nc1c(F)cccc1F | 914 |
| Cc1sc2ccn(Cc3ccc(F)cc3)c(=O)c2c1C(=O)NCc1cccnc1 | 632 |
| Cc1ccc(C)c(NC(=O)Cn2ccc3ccc(-c4nnc(C)o4)cc32)c1 | 1150 |
| COc1ccc(-c2csc(Nc3ccccn3)n2)cc1OC | 761 |
| CS(=O)(=O)Nc1ccc2c(c1)C(=O)Nc1cc(Cl)ccc1O2 | 738 |
| Cc1nc(-c2ccncc2)nc2c1CCC(=O)N2Cc1cccnc1 | 553 |
| COc1ccc(-c2csc(NC(=O)NC3CCCC3)n2)cc1 | 861 |
| O=C(C1CCC1)N1CC(N(Cc2ccncc2)CC2CC2)C1 | 590 |
| COc1ccc(-c2noc(-c3nnn4c3COC(c3ccc(Cl)cc3)C4)n2)cc1OC (stereo unspecified) | 1130 |
| CCOc1ccccc1CNS(=O)(=O)c1ccc2c(c1)CCCC(=O)N2 | 761 |
| O=C(c1cccs1)N1CCc2cc(-c3ccno3)ccc21 | 887 |
| CCC(NC(=O)Cc1cn(C)c2ncccc12)c1cccs1 (stereo unspecified) | 709 |
| COc1ccccc1C(=O)Nc1nc(-c2ccccc2)cs1 | 1110 |
| COc1ccc(-c2cn3c(CC(=O)Nc4ccc(Cl)cc4)csc3n2)cc1OC | 799 |
| CCCn1c(=O)c2cc(C(=O)NCCCc3ccccc3)nn2c2ccccc21 | 1060 |
| Cc1cc(C)c(S(=O)(=O)N2CCC(C(=O)NCCc3csc(-c4ccccc4)n3)CC2)c(C)c1 | 1070 |
| O=C(Cn1nc2c(cc1=O)CCCCC2)Nc1nc(-c2ccncc2)cs1 | 620 |
| CC(C)c1cc(C(=O)N2CCCCC2)nc2ccnn12 | 767 |
| CCNC(=O)c1nc(C(=O)NCc2ccc(F)cc2)cs1 | 751 |
| N#CCCSc1ccccc1NC(=O)c1ccc(S(=O)(=O)N2CCOCC2)cc1 | 760 |
| COCCn1c(=O)c2cc(C(=O)N3CCCC3)nn2c2ccccc21 | 760 |
| CCCOc1ccc(C2NCCc3c2[nH]c2ccccc32)cc1OC (stereo unspecified) | 642 |
| CCOc1ccccc1C(=O)Nc1cccn2cnnc12 | 772 |

| Structure (SMILES) | RP-LC retention time [s] |
| --- | --- |
| CCn1c(N2CCC(C(=O)N3CCC(N4CCCCC4)CC3)CC2)cc(=O)n(C)c1=O | 600 |
| COc1ccccc1CCNC(=O)CCc1csc(NC(=O)NC2CCCCC2)n1 | 786 |
| C[C@@H]1O[C@@H](OC2O[C@@H](COc3cc(O)c4c(=O)cc(-c5ccc(O)cc5)oc4c3)[C@@H](O)[C@@H](O)[C@@H]2O)[C@H](O)[C@H](O)[C@H]1O (stereo partly specified) | 671 |
| Cc1ccccc1C1CCCN1C(=O)c1ccnn1C (stereo unspecified) | 768 |
| Cc1ccc(C)c(N2CCN(C(=O)C3CCN(S(=O)(=O)c4cccc5nsnc45)CC3)CC2)c1 | 1070 |
| O=c1n(Cc2cccc(F)c2)nc2c(S(=O)(=O)N3CCOCC3)cccn12 | 741 |
| Cc1ccc(NC(=O)CSc2cc(N3CCCCC3)ncn2)cc1Cl | 1050 |
| COc1ccc(Nc2nc(N)nc(CSc3nnc4sc5ccccc5n34)n2)cc1 | 692 |
| O=C(Nc1cc(C(F)(F)F)ccc1Cl)c1ccc2ncsc2c1 | 922 |
| COc1ccc(C(=O)N2CC(n3cc(COCC4CC4)nn3)C2)c(OC)n1 | 718 |
| O=C(NC1CCCC1)c1cn(-c2ncccc2-c2nc(-c3ccccc3)no2)cn1 | 867 |
| Cc1ccc(NC(=O)CCc2nc(-c3ccc(N4CCCC4)cc3)no2)c(Br)c1 | 1170 |
| CCOc1ccc(-c2nc(CNC(=O)Nc3ccc(OC)c(OC)c3)c(C)o2)cc1 | 822 |
| Cc1ccc(CNC(=O)C2CCCN(C(=O)c3cc(-c4cccnc4)n[nH]3)C2)o1 (stereo unspecified) | 611 |
| CN1C(=O)CC[C@]2(C(=O)N3CCN(c4ccc(F)cc4)CC3)CCCC[C@@H]12 | 723 |
| CC1=NS(=O)(=O)N(C)C=C1C(=O)OCc1noc(-c2ccccc2Cl)n1 | 975 |
| CCc1nccn1Cc1noc(-c2ccc(F)cc2)n1 | 615 |
| O=C(Nc1cc(F)c2nc(N3CCOCC3)ccc2c1)c1cccs1 | 787 |
| c1cc(-c2cnn3cc(-c4ccc(OCCN5CCCCC5)cc4)cnc23)ccn1 | 584 |
| O=C(NC1CC1)c1nc(Nc2ccc(F)cc2)c2ccccc2n1 | 712 |
| O=C(CC(c1ccccc1)c1ccccc1)Nc1cc(N2CCOCC2)ncn1 | 752 |
| CCCn1cc(S(=O)(=O)Nc2ccc(F)c(C)c2)c2cccnc21 | 923 |
